Results: ChEMBL document CHEMBL2007661, “Compounds: GSK PKIS; Assays: UNC Frye lab” (2012)
“And” between values parts separate entries of the source, which are not always exact repeats. Equal entries are not always repeated.

Tests used:
[1] = target: T1, Inhibitor of nuclear factor kappa-B kinase subunit beta (Homo sapiens) (UniProt O14920); settings: at 1 µM
T1 sequence (whole entry): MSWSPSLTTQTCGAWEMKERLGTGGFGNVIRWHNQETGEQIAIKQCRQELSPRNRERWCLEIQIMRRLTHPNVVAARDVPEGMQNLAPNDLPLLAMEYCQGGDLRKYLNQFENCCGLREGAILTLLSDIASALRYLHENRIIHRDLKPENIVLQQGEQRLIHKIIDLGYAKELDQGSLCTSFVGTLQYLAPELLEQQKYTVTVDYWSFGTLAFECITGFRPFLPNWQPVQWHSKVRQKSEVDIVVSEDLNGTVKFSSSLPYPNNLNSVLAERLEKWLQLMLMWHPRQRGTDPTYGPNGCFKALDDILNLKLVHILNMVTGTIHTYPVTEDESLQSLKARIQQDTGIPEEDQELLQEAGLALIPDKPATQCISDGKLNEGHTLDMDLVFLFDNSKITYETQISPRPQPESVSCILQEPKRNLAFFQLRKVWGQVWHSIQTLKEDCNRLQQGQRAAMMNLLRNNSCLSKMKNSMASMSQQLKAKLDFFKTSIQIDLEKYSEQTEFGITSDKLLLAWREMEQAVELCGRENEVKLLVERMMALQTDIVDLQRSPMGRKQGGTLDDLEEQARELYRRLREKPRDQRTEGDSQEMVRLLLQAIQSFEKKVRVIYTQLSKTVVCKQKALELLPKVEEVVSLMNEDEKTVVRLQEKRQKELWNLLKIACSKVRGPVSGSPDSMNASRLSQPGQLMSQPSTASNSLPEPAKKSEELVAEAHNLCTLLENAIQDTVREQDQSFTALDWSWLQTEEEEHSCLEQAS

[2] = target: T2, Inhibitor of nuclear factor kappa-B kinase subunit epsilon (Homo sapiens) (UniProt Q14164); settings: at 1 µM
T2 sequence (whole entry): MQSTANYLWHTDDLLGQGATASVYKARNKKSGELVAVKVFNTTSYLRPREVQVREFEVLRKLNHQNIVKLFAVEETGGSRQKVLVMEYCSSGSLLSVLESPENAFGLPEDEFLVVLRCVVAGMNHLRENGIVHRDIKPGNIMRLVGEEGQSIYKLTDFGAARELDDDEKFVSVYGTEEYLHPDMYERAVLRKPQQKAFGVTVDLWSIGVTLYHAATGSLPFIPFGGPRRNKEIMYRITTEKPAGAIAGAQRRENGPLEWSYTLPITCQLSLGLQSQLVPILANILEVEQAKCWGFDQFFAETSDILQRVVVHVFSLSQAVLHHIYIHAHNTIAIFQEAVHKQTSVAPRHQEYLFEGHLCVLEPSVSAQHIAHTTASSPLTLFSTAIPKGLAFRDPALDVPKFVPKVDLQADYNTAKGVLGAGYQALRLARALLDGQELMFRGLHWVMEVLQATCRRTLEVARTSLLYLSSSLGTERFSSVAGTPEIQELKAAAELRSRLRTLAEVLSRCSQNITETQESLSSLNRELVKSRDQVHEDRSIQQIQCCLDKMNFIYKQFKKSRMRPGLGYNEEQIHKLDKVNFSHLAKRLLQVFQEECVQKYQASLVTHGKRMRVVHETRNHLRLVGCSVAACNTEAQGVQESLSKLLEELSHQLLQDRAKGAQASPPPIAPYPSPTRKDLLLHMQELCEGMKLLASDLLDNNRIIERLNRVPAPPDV

Structure (SMILES)	inhibition [1]	inhibition [2]
COc1cc2ncn(-c3cc(OCc4ccccc4C(F)(F)F)c(C(C)=O)s3)c2cc1OC	-7% and -4%	-4%
CN(C)C(=O)O[C@@H]1CN[C@@H](C#Cc2cc3ncnc(Nc4ccc(OCc5cccc(F)c5)c(Cl)c4)c3s2)C1	-4% and -7%	-1%
COc1cc(Nc2ncc(-c3ccccc3)o2)cc(OC)c1	0% and -4%	0% and -1%
Oc1cccc(-c2nc(-c3ccccc3)[nH]c2-c2ccncc2)c1	1% and 0%	-1% and -3%
NC(=O)c1ccc(Oc2nccc(-c3c(-c4ccc(F)cc4)ncn3C3CCNCC3)n2)cc1	0%	3%
O=C(Nc1n[nH]c2cc(-c3ccc(F)cc3)ccc12)C1CC1	-8% and -2%	2% and -1%
Fc1ccc(-c2ncn(C3CCNCC3)c2-c2ccnc(Oc3ccccc3)n2)cc1	-2%	-1% and -2%
NS(=O)(=O)c1ccc(N/N=C2\C(=O)Nc3ccc4ncccc4c32)cc1	-9% and -6%	55%
O=C1Nc2ccccc2/C1=C/Nc1ccc2[nH]c(=O)[nH]c2c1	-5% and -3%	22% and 20%
O=C(Nc1n[nH]c2cc(-c3ccccc3)ccc12)C1CC1	-2% and -6%	-1%
CS(=O)(=O)CCNCc1ccoc1-c1ccc2ncnc(Nc3ccc(OCc4ccccc4)cc3)c2c1	5% and 4%	3%

Second part, the compound after the results:

inhibition [1]	inhibition [2]	Structure (SMILES)
-5% and -4%	2%	CN(C)CCCn1c(-c2nonc2N)nc2cnccc21
-2% and -5%	-4% and -2%	COc1ccc(COc2ccc(Cc3cnc(N)nc3N)cc2OC)cc1
-5% and -6%	-3% and -2%	c1ccc(Cc2nc3ccc(Nc4ncnc5ccccc45)cc3[nH]2)cc1
-1% and -5%	1%	CN(C)CCNC(=O)Nc1ccc(N(C)c2ccnc(Nc3ccc(CS(C)(=O)=O)cc3)n2)cc1
1% and -2%	-3% and -2%	Fc1ccc(Nc2nccc(-c3c(-c4ccc(C(F)(F)F)cc4)nn4ncccc34)n2)cc1F
2% and 1%	0% and 1%	Cc1cccc(Nc2ncc(-c3ccccc3)o2)c1
-1% and 0%	0% and 3%	COc1cc2ncn(-c3cc(OCc4ccccc4C(F)(F)F)c(C(N)=O)s3)c2cc1OC
-4% and -5%	-3% and 0%	OCCCNc1nccc(-c2c(-c3ccc(F)cc3)nn3cc(C(F)(F)F)ccc23)n1
-5% and -1%	0%	O=C(Nc1n[nH]c2nc(-c3ccco3)c(Br)cc12)C1CC1
